Converted amounts (≈) assume the structure as drawn. “Also recorded” adds a separate entry of the source. Starred links: 1 amine or outer side, 2 acyl side, 3 side chain; linkers in the order of their positions; H or OH if unused. Positions of bridges follow the written chain, without caps; N, C: chain ends. Non-standard residues stand in square brackets, D forms with d. Residues, ends and D or L forms follow the SMILES beside them. Chains are numbered I, II in the order given. X1 = O=C1CC([*:1])C(=O)N1CCOCCOCCOCCN1C(=O)CC([*:2])C1=O; Dopa = N[C@@H](Cc1ccc(O)c(O)c1)C(=O)O
What was measured:
[1] = test system: methicillin resistant S. aureus (MRSA, strain S1); test: Antibacterial growth inhibition assay, MRSA strain S1; format: cell-based, Staphylococcus aureus; details: MHB medium pH 7.4, 24 h at 37 °C, A620 nm, triplicates
Procedure: (§1) Antibacterial assays were realized to the method previously reported[22],[25]. S. aureus strains were pre-cultured for 20 h in aerobic conditions at 37 °C in Mueller–Hinton Broth (MHB) medium (Becton–Dickinson Microbiology Company, Sparks, USA) (pH 7.4). Bacteria were suspended at absorbance of 0.001 at 620 nm in the MHB medium. Antibacterial activity was tested for 24 h incubation at 37 °C with shaking by measuring the inhibition of bacterial growth. Ten µl of final volumes (10–200 µg/mL) of synthetic peptides were incubated in microtitration plates with 90 µl of a mid-logarithmic phase culture of bacteria, with a starting absorbance of 0.001 at 620 nm. A mixture of Tetracycline (10 mg/L) and Cefotaxime (0.1 mg/L) were used as positive controls. Microbial growth was assessed by the increase of absorbance after 24 h incubation at 37 °C. The A620 nm value of control cultures growing in the absence of peptide and antibiotics was defined as 100% growth. A620 nm value with the antibiotics (Tetracycline and Cefotaxime) was taken as 100% inhibition. Absence of bacterial growth was verified by agar plate spreading. Each assay was performed in triplicates. Data were shown as mean + /− standard deviation of three independent experiments; p < 0.05.

[2] = test system: C. albicans (ATCC 10231TM); test: Antimicrobial assay against C. albicans ATCC 10231; format: cell-based, Candida albicans; details: Sabouraud medium, 24 h at 37 °C, OD620nm, lowest concentration inhibiting 100% of growth
Procedure: Antimicrobial assays against C. albicans (ATCC 10231TM) were realized according to the method previously reported. C. albicans was cultured in Sabouraud medium (Sigma-Aldrich, Saint Louis, USA) supplemented with tetracycline (10 μg/mL) and cefotaxime (10 μg/mL) at 37 °C for 24 h. C. albicans (OD620nm = 0.001) were plated in 96-well plates and treated either with different concentrations of the peptides of interest, and/or with different concentrations of voriconazole (VCZ) (Sigma-Aldrich, Saint Louis, USA). As a positive control, cells were treated with 10 μg/mL VCZ. After 24 h incubation, yeast growth was assessed by optical density OD620nm using a spectrophotometer Multiskan EX Microplate Reader Lab (Thermo Fisher Scientific, Waltham, MA, USA).
The MIC of the antifungal agents is defined as the lowest concentration of drug able to inhibit 100% of the growth of C. albicans.

[3] = test system: methicillin sensitive S. aureus (MSSA, strain 49775); format: cell-based, Staphylococcus aureus; details: for MIC100 MSSA: MSSA strain 49775, MHB medium pH 7.4, 24 h at 37 °C, A620 nm, triplicates
Procedure: as §1

[4] = test system: Human Peripheral Blood Mononuclear Cells (PBMCs); test: Cytokine release assay, Bio-Plex Multiplex Immunoassay; format: cell-based; details: 30 µM, 24 h, IL-6, IL-8, IL-10 pointed out, two healthy volunteers
From the text: (§2) The release of cytokines IL-6, IL-8, IL-10 and TNF-α induced after the treatment of immune cells by Cts was realized by the use of an automated ELISA immunoassay (Immulite One, Siemens la Garenne-Colombe, France) and with the Bio-Plex Multiplex Immunoassay system (Bio-Rad, Marnes-la-Coquette) for the treatment of Human Peripheral Blood Mononuclear Cells (PBMCs) by L-Ctl, D-Ctl, Ctl-C, D-Ctl-C and P3. PBMCs from healthy volunteers were obtained from the blood transfusion centre of Strasbourg (Etablissement Français du Sang, Strasbourg) and isolated by density gradient centrifugation using Lymphoprep (Stemcell Technologies). PMBC were then maintained in AIM V medium (Thermo Fisher Scientific, Waltham, MA, USA) at 37 °C in a 5% CO2 humidified incubator and treated for 24 h with 30 µM of each peptide (L-Ctl, D-Ctl, Ctl-C, D-Ctl-C and P3). Three technical replicates were performed for each condition. Supernatants were then filtered and assessed for cytokine dosage according to the manufacturer’s instructions.

[5] = test system: proteases produced by Staphylococcus aureus; test: proteases produced by Staphylococcus aureus; details: cited from earlier work
[6] = test system: Endoprotease Glu-C from S. aureus V8 (E.C. 3.4.21.19); test: Endoprotease Glu-C in 50 mM Tris–HCl pH 8.2 or PBS; details: S. aureus V8 (enzyme source), 37 °C, up to 18 h
[7] = test system: Endoprotease Glu-C from S. aureus V8 (E.C. 3.4.21.19); test: endoprotease Glu-C in 50 mM Tris–HCl pH 8.2 or PBS; details: S. aureus V8, 37 °C, up to 18 h
Candida albicans = format: cell-based
Procedure: (§3) The L- and D- forms of Ctl and also the corresponding L- and D-forms of the scramble peptides were tested by Atlangram (Nantes, France) against resistant Gram-negative bacteria (Escherichia coli, Klebsiella pneumoniae, Enterobacter cloacae, Enterobacter aerogenes, Serratia marcescens, Morganella morganii, Pseudomonas aeruginosa), MSSA, MRSA and yeast (C. albicans). The MICs were determined according to the CASFM/EUCAST 2018 (Comité de l’Antibiogramme de la Société Française de Microbiologie).

Escherichia coli = format: cell-based
Procedure: as §3

Morganella morganii = format: cell-based
Procedure: as §3

MRSA = format: cell-based, Staphylococcus aureus
Procedure: as §3

Pseudomonas aeruginosa = format: cell-based
Procedure: as §3

Serratia marcescens = format: cell-based
Procedure: as §3

Citrobacter freundii = format: cell-based
MSSA = format: cell-based, Staphylococcus aureus
Procedure: as §3

CD14 cells = test: Cytokine release assay, ELISA; format: cell-based, human; details: 24 h, cells from 2 patients
Procedure: Three types of immune cells were prepared from human monocytes provided from the EFS (Etablissement Français du Sang). Dendritic cells (DC1a), CD14 and macrophages were obtained after treatment of monocytes by cytokines according to the methods previously reported[31],[32] and the identification of the immune cells was validated by using flow cytometry analysis (Fluorescence Activated Cell Sorting, FACS).
as §2

CSCC[C@H](NC(=O)[C@H](CO)NC(=O)[C@@H](N)CCCNC(=N)N)C(=O)N[C@@H](CCCNC(=N)N)C(=O)N[C@@H](CC(C)C)C(=O)N[C@@H](CO)C(=O)N[C@@H](Cc1ccccc1)C(=O)N[C@@H](CCCNC(=N)N)C(=O)N[C@@H](C)C(=O)N[C@@H](CCCNC(=N)N)C(=O)NCC(=O)N[C@@H](Cc1ccc(O)cc1)C(=O)NCC(=O)N[C@@H](Cc1ccccc1)C(=O)N[C@@H](CCCNC(=N)N)C(=O)N[C@@H](CSC1CC(=O)N(CCOCCOCCOCCN2C(=O)CC(SC[C@H](NC(=O)[C@H](CCCNC(=N)N)NC(=O)[C@H](Cc3ccccc3)NC(=O)CNC(=O)[C@H](Cc3ccc(O)cc3)NC(=O)CNC(=O)[C@H](CCCNC(=N)N)NC(=O)[C@H](C)NC(=O)[C@H](CCCNC(=N)N)NC(=O)[C@H](Cc3ccccc3)NC(=O)[C@H](CO)NC(=O)[C@H](CC(C)C)NC(=O)[C@H](CCCNC(=N)N)NC(=O)[C@H](CCSC)NC(=O)[C@H](CO)NC(=O)[C@@H](N)CCCNC(=N)N)C(=O)O)C2=O)C1=O)C(=O)O (stereo partly drawn) [Peptide P3] (I: H-RSMRLSFRARGYGFRC-OH / II: H-RSMRLSFRARGYGFRC-OH; linker I:16-II:16 via X1; N-terminus and C-terminus assumed)
MIC100 MRSA [1]: 50 µM (≈ 214 µg/mL)
MIC100 C. albicans [2]: 20 µM (≈ 85.6 µg/mL)
MIC100 MSSA [3]: 30 µM (≈ 128 µg/mL)
release of the tested cytokines from PBMCs [4]: unable to induce te release of the tested cytokines; also recorded: unable to release significantly the tested cytokines

RSMRLSFRARGYGFR
not cleaved [5]: resistant to degradation by the proteases produced by Staphylococcus aureus

CSCC[C@@H](NC(=O)[C@@H](CO)NC(=O)[C@@H](CCCNC(=N)N)NC(=O)[C@H](CCC(=O)O)NC(=O)CNC(=O)CNC(=O)[C@H](CCCNC(=N)N)NC(=O)[C@H](CC(C)C)NC(=O)[C@@H](NC(=O)[C@H](Cc1ccc(O)c(O)c1)NC(=O)[C@H](CCCCN)NC(=O)[C@H](Cc1ccc(O)c(O)c1)NC(=O)[C@H](CCCCN)NC(=O)[C@@H](N)Cc1ccc(O)c(O)c1)[C@@H](C)O)C(=O)N[C@H](CCCNC(=N)N)C(=O)N[C@H](CC(C)C)C(=O)N[C@H](CO)C(=O)N[C@H](Cc1ccccc1)C(=O)N[C@H](CCCNC(=N)N)C(=O)N[C@H](C)C(=O)N[C@H](CCCNC(=N)N)C(=O)NCC(=O)N[C@H](Cc1ccc(O)cc1)C(=O)NCC(=O)N[C@H](Cc1ccccc1)C(=O)N[C@H](CCCNC(=N)N)C(=O)O [DOPA5T-(D)Ctl] (H-[Dopa]K[Dopa]K[Dopa]TLRGGE[dR][dS][dM][dR][dL][dS][dF][dR][dA][dR]G[dY]G[dF][dR]-OH)
IC50 ([3]; methicillin sensitive (, strain 49775, 24 h)): 35 µM

RSMRLSFRARGYGFRMal-(16PEG)-MalRFGYGRARFSLRMSR [Peptide P5, dimeric form of Ctl with spacer of 16 PEG]
MIC100 MRSA [1]: > 100 µM
MIC100 C. albicans [2]: 50 µM
MIC100 MSSA [3]: > 100 µM

RSMRLSFRARGYGFRMal-(46PEG)-MalRFGYGRARFSLRMSR [Peptide P6, dimeric form of Ctl with spacer of 46 PEG]
MIC100 MSSA [3]: > 100 µM

TLRGGE-RSMRLSFRARGYGFR
cleaved bond [6]: R-A, major
cleaved bond [7]: R-A, major
fragment found [7]: TLRGGE, major

CSCC[C@@H](NC(=O)[C@@H](CO)NC(=O)[C@H](N)CCCNC(=N)N)C(=O)N[C@H](CCCNC(=N)N)C(=O)N[C@H](CC(C)C)C(=O)N[C@H](CO)C(=O)N[C@H](Cc1ccccc1)C(=O)N[C@H](CCCNC(=N)N)C(=O)N[C@H](C)C(=O)N[C@H](CCCNC(=N)N)C(=O)NCC(=O)N[C@H](Cc1ccc(O)cc1)C(=O)NCC(=O)N[C@H](Cc1ccccc1)C(=O)N[C@H](CCCNC(=N)N)C(=O)O [D-Ctl] (H-[dR][dS][dM][dR][dL][dS][dF][dR][dA][dR]G[dY]G[dF][dR]-OH)
MIC (Candida albicans): 256 µg/mL (≈ 138 µM)
MIC against several strains of E. coli (Escherichia coli): 8 to 32 µg/mL
MIC (Morganella morganii): > 128 µg/mL
MIC (MRSA): 64 µg/mL (≈ 34.4 µM)

DOPA-K-DOPA-K-DOPA-TLRGGE-RSMRLSFRARGYGFR
cleaved bond [7]: E-R, major

CSCC[C@@H](NC(=O)[C@H](N)Cc1ccccc1)C(=O)N[C@H](CCCNC(=N)N)C(=O)N[C@H](CC(C)C)C(=O)N[C@H](CCCNC(=N)N)C(=O)N[C@H](Cc1ccc(O)cc1)C(=O)N[C@H](CCCNC(=N)N)C(=O)N[C@H](CO)C(=O)N[C@H](CO)C(=O)N[C@H](C)C(=O)N[C@H](Cc1ccccc1)C(=O)NCC(=O)NCC(=O)N[C@H](CCCNC(=N)N)C(=O)N[C@H](CCCNC(=N)N)C(=O)O [Control D, reference compound] (H-[dF][dM][dR][dL][dR][dY][dR][dS][dS][dA][dF]GG[dR][dR]-OH)
MIC (Candida albicans): 512 µg/mL (≈ 275 µM)
MIC (Morganella morganii): > 128 µg/mL
MIC (Pseudomonas aeruginosa): > 128 µg/mL
MIC (Serratia marcescens): > 128 µg/mL
MIC (Citrobacter freundii): 128 µg/mL (≈ 68.8 µM)
MIC (MRSA): > 128 µg/mL
MIC (MSSA): > 128 µg/mL

Catestatin [Cts]
production of IL-6 (CD14 cells; 15 µM, cell type not given): not modified
production of IL-10 (CD14 cells; 15 µM, cell type not given): not modified
production of TNF-α (CD14 cells; 15 µM, cell type not given): not modified
decrease of the amount of IL-8 released versus controls (without peptide) (CD14 cells; CD14, 15 µM): 26%

RSMRLSFRARGYGFRMal-(12PEG)-MalRFGYGRARFSLRMSR [Peptide P4, dimeric form of Ctl with spacer of 12 PEG]
MIC100 MSSA [3]: > 100 µM

— PMC8329280 (Scientific Reports, 2021)
